These results are taken from patent US20130143812A1, “ANTI-INFLAMMATORY DRUG” (SEKISUI MEDICAL CO., LTD., priority 2010, published 2013).

Assay [1] deals with RAW264.7 cells. Nature of the assay: Macrophage marker expression in RAW264.7 cells with activin A, activin B or SB431542 and palmitic acid. It counts as cell-based. To be noted: for expression level of IL-6 / expression level of MCP-1 / expression level of arginase-1: compared to control. As for the experimental part:
(1) Induction of Macrophages by Activin Species Activin A (10 ng/mL), activin B (10 ng/mL), and SB431542 (0.1 to 1 μM) were added to RAW264.7 cells in combination as depicted in FIG. 4. Human Recombinant (R&D Systems, 338AC005) and Recombinant (R&D Systems, 659AB005) were used for activin A and activin B, respectively. After 30 minutes, palmitic acid (a proinflammatory substance) was added to the final concentration of 200 μM and, after eight hours, RNeasy Mini Kit (250) (Qiagen, Cat. Number 74106) was used for recovering the cells to extract RNA. The RNA extracted at step (1) was used for performing a reverse transcription reaction in accordance with the protocol of High Capacity cDNA Reverse Transcription Kit with RNase Inhibitor (ABI) to perform TaqMan PCR. Arginase-1 was selected as an M2 macrophage marker and IL-6 and MCP-1 were selected as M1 macrophage markers to create respective TaqMan probes. Analysis was performed in the same way as the expression analysis of macrophage markers of Example 1.

Assay [2] concerns RAW264.7 cells. Nature of the assay: Macrophage marker expression in RAW264.7 cells with activin A, activin B or Fstl3 and palmitic acid. In kind it is cell-based. The following applies: palmitic acid 200 μM. As for the experimental part:
Activin A (10 ng/mL), activin B (10 ng/mL), and Fstl3 (3 to 30 ng/mL) were added to RAW264.7 cells in combination as depicted in FIG. 5. Human Recombinant (R&D Systems, 338AC005), Recombinant (R&D Systems, 659AB005), and Follistatin-like 3 Recombinant (R&D Systems, 1255F3025) were used for activin A, activin B, and Fstl3, respectively. After 30 minutes, palmitic acid (a proinflammatory substance) was added to the final concentration of 200 μM and, after eight hours, RNeasy Mini Kit (250) (Qiagen, Cat. Number 74106) was used for recovering the cells to extract RNA.
Analysis was performed in the same way as Example 4. For each of palmitic acid, activin species, and Fstl3, the expression level is represented by a ratio when a measurement value of each marker relative to a measurement value of cyclophilin A in non-additive control is defined as one.

The test system of assay [3] is RAW264.7 cells. Nature of the assay: Expression of M2 macrophage markers in RAW264.7 cells cultured with activin A and SB431542. It counts as cell-based. The following applies: SB431542 0.1 to 1 μM added with activin A, 24 hours. As for the experimental part: Activin A (10 ng/mL or 30 ng/mL) and SB431542 (0.1 to 1 μM, Santa Cruz Biotechnology, Inc., sc-204265) were added to RAW264.7 cells in combination as depicted in FIG. 2. Human Recombinant (R&D Systems, 338AC005) was used for activin A. After 24 hours, RNeasy Mini Kit (250) (Qiagen, Cat. Number 74106) was used for recovering the cells to extract RNA. The RNA extracted at step (1) was used for performing a reverse transcription reaction in accordance with the protocol of High Capacity cDNA Reverse Transcription Kit with RNase Inhibitor (ABI) to perform TaqMan PCR. Arginase-1, Mrc2 (mannose receptor 2), and IL-10 were selected as M2 macrophage markers to create respective TaqMan probes.

Assay [4] has as its system RAW264.7 cells. Nature of the assay: Arginase-1 expression in RAW264.7 cells with activin A, Fstl3, anti-Fstl3 antibody or mouse IgG and palmitic acid. In kind it is cell-based. The following applies: Fstl3 30 ng/mL present with activin A 10 ng/mL, palmitic acid 200 μM. As for the experimental part:
Fstl3 (30 ng/mL), an anti-Fstl3 antibody or mouse IgG (0.3 to 10 μg/mL), and activin A (10 ng/mL) were added to RAW264.7 cells in combination as depicted in FIG. 6. Human Recombinant (R&D Systems, 338AC005), Recombinant (R&D Systems, 659AB005), and Follistatin-like 3 Recombinant (R&D Systems, 1255F3025) were used for activin A, activin B, and Fstl3, respectively. After 30 minutes, palmitic acid (a proinflammatory substance) was added to the final concentration of 200 μM and, after eight hours, RNeasy Mini Kit (250) (Qiagen, Cat. Number 74106) was used for recovering the cells to extract RNA.
The RNA extracted at step (1) was used for performing a reverse transcription reaction in accordance with the protocol of High Capacity cDNA Reverse Transcription Kit with RNase Inhibitor (ABI) to perform TaqMan PCR. Arginase-1 was selected as an M2 macrophage marker to create TaqMan probes.

Assay [5] has as its system high-fat diet-fed B6 mice. Nature of the assay: Arginase-1 mRNA expression in visceral fat of high-fat diet-fed B6 mice given recombinant adenovirus. To be noted: twelve-week high-fat diet B6 mice, activin expressed by recombinant adenovirus via tail vein once a week for two weeks. In kind it is in vivo. The source says: (§1) Full-length mouse inhibin βA cDNA or full-length mouse inhibin βB cDNA was amplified by using pcDNA3.1/V5-HisA (Invitrogen) in accordance with the recommended method. The amplified product was subjected to HindIII and EcoRV treatments and used for production of recombinant adenovirus. The recombinant adenovirus of inhibin βA or inhibin βB was produced by using Takara Adenovirus Expression Vector Kit (Takara) in accordance with the recommended method. For negative control, β-galactosidase-gene-containing virus attached to the kit was used. The adenovirus was transfected to HEK293 cells by using CellPhect (registered trademark) Transfection Kit (GE Healthcare) with the calcium phosphate method.
After five-week-old male B6 mice were adapted with normal diet for one week, high-fat diet was fed for twelve weeks. The recombinant adenovirus (5.0×10^11 pfu/mL) was lysed in 150 μL of PBS and administered to mice in the 18th week from the tail vein once a week for two weeks. Visceral fat was collected on seventh day after the second administration for performing reverse transcription in accordance with the protocol of High Capacity cDNA Reverse Transcription Kit with RNase Inhibitor (ABI) and the expression analysis of arginase-1 was performed with TaqMan PCR.

In assay [6] the test system is high-fat diet-fed B6 mice. Nature of the assay: Glucose tolerance test (GTT) in high-fat diet-fed B6 mice given recombinant adenovirus. In kind it is in vivo. To be noted: activin expressed by recombinant adenovirus, glucose 1.0 mg/g-BW into abdominal cavity. As for the experimental part: Adenovirus was produced in the same way as the production of recombinant adenovirus in Example 3.
After five-week-old male B6 mice were adapted with normal diet for one week, high-fat diet was fed for twelve weeks. The recombinant adenovirus (5.0×10^11 pfu/mL) was lysed in 150 μL of PBS and administered to mice in the 18th week from the tail vein once a week for two weeks. A glucose tolerance test (GTT) was performed on seventh day after the second administration.
The GTT was performed as follows. Into the abdominal cavities of mice fasted for 16 hours from the previous day of the test, 1.0 mg/g-BW of glucose (diluted by physiological saline) was administered. Serum was separated from collected whole blood and glucose concentration was measured by Glucose-Test Wako (manufactured by Wako Pure Chemical Industries).

Assay [7] has as its system db/db mice. Nature of the assay: Arginase-1 mRNA expression in visceral fat of db/db mice given recombinant adenovirus. In kind it is in vivo. The following applies: activin expressed by recombinant adenovirus via tail vein once a week for two weeks, compared to control.
Text: as §1
After seven-week-old male db/db mice were adapted for one week, 5.0×10^11 pfu/mL of the recombinant adenovirus was lysed in 150 μL of PBS and administered from the tail vein once a week for two weeks. Visceral fat was collected on seventh day after the second administration for performing a reverse transcription reaction in accordance with the protocol of High Capacity cDNA Reverse Transcription Kit with RNase Inhibitor (ABI) and the expression analysis of arginase-1 was performed with TaqMan PCR.

Assay [8] relates to RAW264.7 cells. Nature of the assay: Expression of M2 and M1 macrophage markers in RAW264.7 cells cultured with activin A or activin B (TaqMan PCR). In kind it is cell-based. To be noted: 10 or 30 ng/mL added individually, 8 hours. As for the experimental part: Each of activin A (10 ng/mL or 30 ng/mL) and activin B (10 ng/mL or 30 ng/mL) was individually added to RAW264.7 cells. Human Recombinant (R&D Systems, 338AC005) and Recombinant (R&D Systems, 659AB005) were used for activin A and activin B, respectively. After eight hours, RNeasy Mini Kit (250) (Qiagen, Cat. Number 74106) was used for recovering the cells to extract RNA.
The RNA extracted at step (1) was used for performing a reverse transcription reaction in accordance with the protocol of High Capacity cDNA Reverse Transcription Kit with RNase Inhibitor (ABI) to perform TagMan PCR. Arginase-1 was selected as an M2 macrophage marker and IL-6 and MCP-1 were selected as M1 macrophage markers to create respective TaqMan probes. Each of mRNA expression levels is represented by a multiple when an expression level of cyclophilin A mRNA in the same sample is defined as one (hereinafter, the same applies to the examples using TaqMan PCR unless otherwise stated).

[9] abbreviates: palmitic acid 200 μM, absence of activin species, 8 hours.
Where [10] appears, read: SB431542 0.1 to 1 μM with palmitic acid 200 μM, absence of activin species.
Setting [11] is: SB431542 0.1 to 1 μM, activin A 10 ng/mL and palmitic acid 200 μM present.
[12] abbreviates: SB431542 0.1 to 1 μM, activin B 10 ng/mL and palmitic acid 200 μM present.
Where [13] appears, read: SB431542 only (0.1 to 1 μM), without palmitic acid.
Setting [14] is: activin 10 ng/mL, palmitic acid 200 μM, 8 hours.

On to `CCCCCCCCCCCCCCCC(=O)O` [palmitic acid], for which, in assay [1] (setting [9]), the “expression level of IL-6” value is given as “remarkably increased”, the “expression level of MCP-1” value is listed as “remarkably increased” and the “expression level of arginase-1” value is reported as “not changed or was slightly changed”. Also, in assay [2] (8 hours), the “expression of IL-6, effect of palmitic acid” value is listed as “increased”. Further, in assay [2] (regardless of the presence of activin species, change negligible), the “expression of MCP1, effect of palmitic acid” value was “increased”.

In the case of `NC(=O)c1ccc(-c2nc(-c3ccc4c(c3)OCO4)c(-c3ccccn3)[nH]2)cc1` [SB431542], in assay [1] (setting [10]), the “expression level of IL-6, effect of SB431542” value is given as “constantly increased depending on the additive concentration” and the “palmitic acid-induced increase of MCP-1 expression, effect of SB431542” value (“palmitic acid-induced increase” for short) is on record as “not changed”. For the same molecule, in assay [1] (setting [11]), the “expression level of IL-6, effect of SB431542” value is listed as “constantly increased depending on the additive concentration”; the “expression level of arginase-1, effect of SB431542” value is given as “reduced depending on the additive concentration”; the “palmitic acid-induced increase” value is given as “not changed”. Moreover, in assay [1] (setting [12]), the “expression level of IL-6, effect of SB431542” value is “constantly increased depending on the additive concentration”; the “expression level of arginase-1, effect of SB431542” value was “reduced depending on the additive concentration”; the “palmitic acid-induced increase” value is given as “not changed”. Moreover, in assay [1] (setting [13]), the “expression level of IL-6” value is “not changed or were slightly changed”, the “expression level of MCP-1” value is listed as “not changed or were slightly changed” and the “expression level of arginase-1” value is on record as “not changed or were slightly changed”. Further, the “activin A-induced increase in expression of arginase-1, Mrc2 and IL-10” value in assay [3] was “reduced to the same level as control”.

B1: Fstl3: Follistatin-like 3 Recombinant (R&D Systems, 1255F3025); binds to activins and inhibits binding to their receptor (protein, UniProt O95633 27-263, looked up)
Follistatin-related protein 3: MGSGNPAPGGVCWLQQGQEATCSLVLQTDVTRAECCASGNIDTAWSNLTHPGNKINLLGFLGLVHCLPCKDSCDGVECGPGKACRMLGGRPRCECAPDCSGLPARLQVCGSDGATYRDECELRAARCRGHPDLSVMYRGRCRKSCEHVVCPRPQSCVVDQTGSAHCVVCRAAPCPVPSSPGQELCGNNNVTYISSCHMRQATCFLGRSIGVRHAGSCAGTPEEPPGGESAEEEENFV
As for B1, the “expression level of arginase-1, effect of FSTL3” value in assay [4] is listed as “reduced to the same level as the control”. The “expression of arginase-1, effect of Fstl3” value in assay [2] (Fstl3 30 ng/mL added concurrently with activin A 10 ng/mL) is “reduced”. The “expression level of MCP1, effect of FSTL3” value in assay [2] (Fstl3 3 to 30 ng/mL) is listed as “not changed”.

B2: activin B: Recombinant (R&D Systems, 659AB005); in Examples 3 and 7 expressed by inhibin βB recombinant adenovirus (protein, UniProt P09529 293-407, looked up)
Inhibin beta B chain: GLECDGRTNLCCRQQFFIDFRLIGWNDWIIAPTGYYGNYCEGSCPAYLAGVPGSASSFHTAVVNQYRMRGLNPGTVNSCCIPTKLSTMSMLYFDDEYNIVKRDVPNMIVEECGCA
modifications: Inhibin beta B chain homodimer
Turning to B2, the “expression level of arginase-1” value in assay [1] (activin 10 ng/mL present, palmitic acid 200 μM added, 8 hours) is reported as “remarkably increased”. Further, in assay [1] (setting [14]), the “expression level of MCP-1, effect of activin addition” value is on record as “not changed” and the “expression of IL-6, effect of activin addition” value is listed as “slightly reduced”. The “expression level of arginase-1 in visceral fat” value in assay [5] was “similarly increased”. For the same molecule, the “glucose metabolism in glucose tolerance test (GTT)” value in assay [6] is reported as “improved glucose metabolism”. Moreover, in assay [7], the “expression of arginase-1 in visceral fat” value is reported as “remarkably increased”. Besides, in assay [8], the “expression level of IL-6 (M1 macrophage marker)” value is “not changed” and the “expression level of MCP-1 (M1 macrophage marker)” value was “not changed”. The “expression of arginase-1 (M2 macrophage marker)” value in assay [8] (mRNA relative to cyclophilin A) is “remarkably increased”.
